From patent US20260223844A1, “METHODS AND COMPOSITIONS FOR ALTERING METABOLITES IN HOP PLANTS” (Impello Biosciences, Inc., priority 2023, published 2026)

Key:
Assay type in all cases: in vivo, Humulus lupulus
Cashmere Hops [1] = experiment: Bitter acids analysis of treated hop plants, Example 2 (HPLC, modified EBC 7.8); conditions: MDJ foliar spray 1 mM or 5 mM vs untreated control
Method: (§1) Hop plants were treated with illustrative elicitor compositions of the disclosure to determine the effect of treatment on hop terpene content. The hop cultivar was Cashmere Hops. The treatments were as follows: Control (“CK2”)—Untreated control; TR1—1 mM MDJ Foliar Spray: TR2—5 mM MDJ Foliar Spray.
(§2) Harvested hops were analyzed for total oil, beta acid, alpha acid, terpene, and thiol content. Total oil analysis was performed according to Analytica EBC Method 7.10, employing steam distillation. Alpha/beta/iso-alpha acid analysis was performed using HPLC, employing a modified version of Analytica EBC Method 7.8. Terpene analysis was performed according to Analytica EBC Method 7.12, employing Capillary Gas Chromatography Flame Ionization Detection. Thiol composition was analyzed via gas chromatography with sulfur chemiluminescence detector (GC-SCD).

Cashmere Hops [2] = experiment: Terpene analysis of treated hop plants, Example 2 (EBC 7.12, GC-FID); conditions: 5 mM MDJ foliar spray vs control
Method: as §1, §2

CTZ hop plants [3] = experiment: Total oil analysis of treated hop plants, Example 4
Method: (§3) Hop plants were treated with illustrative elicitor compositions of the disclosure to determine the effect of treatment on hop bitter acid and terpene content. The hop cultivar was CTZ, also known as Columbus, Tomahawk, or Zeus, three trade names owned by various private corporations for the same variety of hop. The treatments were as follows: 1 mM, 5 mM, and 10 mM MDJ Foliar Spray. Harvested hops were analyzed for total oil, beta acid, alpha acid, and terpene content. Total oil and terpene analysis was performed according to a modified version of Analytica EBC Method 7.12, employing Capillary Gas Chromatography Flame Ionization Detection. Plants were measured in triplicate from each treatment group; results represent the average of three samples. Alpha/beta/iso-alpha acid analysis was performed using HPLC, employing a modified version of Analytica EBC Method 7.8.

CTZ hop plants [4] = experiment: Alpha/beta acid analysis of treated hop plants, Example 4 (HPLC, modified EBC 7.8)
Method: as §3

CTZ hop plants [5] = experiment: Terpene analysis of treated hop plants, Example 4 (modified EBC 7.12, GC-FID); conditions: % of overall terpene content; for Terpene content: Geranyl acetate 1*: (2E) isomer; for Terpene content: Geranyl acetate 2**: (2Z) isomer; for Terpene content: Nerolidol 1*: (E) isomer; for Terpene content: Nerolidol 2**: (Z) isomer
Method: as §3

CCCCCC1C(=O)CCC1CC(=O)OC (stereo not drawn) [MDJ, methyl dihydrojasmonate]
content of the alpha acid analogue cohumulone (Cashmere Hops [1]): decreased
beta acid content (Cashmere Hops [1]; especially at 5 mM): statistically significant increase
caryophyllene content (Cashmere Hops [2]): increased
caryophyllene oxide content (Cashmere Hops [2]): decreased
citral content (Cashmere Hops [2]): decreased
farnesene content (Cashmere Hops [2]): increased
geraniol content (Cashmere Hops [2]): increased
humulene content (Cashmere Hops [2]): increased
methyl heptanoate content (Cashmere Hops [2]): decreased
methyl laurate content (Cashmere Hops [2]): decreased
methyl octanoate content (Cashmere Hops [2]): increased
methyl thiohexanoate content (Cashmere Hops [2]): increased
myrcene content (Cashmere Hops [2]): decreased
nerolidol content (Cashmere Hops [2]): increased
ocimene content (Cashmere Hops [2]): increased
q-pinene content (Cashmere Hops [2]): increased
β-pinene content (Cashmere Hops [2]): decreased
Total oil (CTZ hop plants [3]; 1 mM MDJ foliar spray): 1.43 mL/100 g
Total oil (CTZ hop plants [3]; 5 mM MDJ foliar spray): 2.22 mL/100 g
Total oil (CTZ hop plants [3]; 10 mM MDJ foliar spray): 1.72 mL/100 g
Alpha Acids (CTZ hop plants [4]; 1 mM MDJ foliar spray): 4.83%
Beta Acids (CTZ hop plants [4]; 1 mM MDJ foliar spray): 3.53%
Cohumulone (CTZ hop plants [4]; 1 mM MDJ foliar spray): 21.43 % alpha
Colupulone (CTZ hop plants [4]; 1 mM MDJ foliar spray): 43.53 % beta
Alpha Acids (CTZ hop plants [4]; 5 mM MDJ foliar spray): 6.10%
Beta Acids (CTZ hop plants [4]; 5 mM MDJ foliar spray): 3.83%
Cohumulone (CTZ hop plants [4]; 5 mM MDJ foliar spray): 23.37 % alpha
Colupulone (CTZ hop plants [4]; 5 mM MDJ foliar spray): 49.3 % beta
Alpha Acids (CTZ hop plants [4]; 10 mM MDJ foliar spray): 7.80%
Beta Acids (CTZ hop plants [4]; 10 mM MDJ foliar spray): 4.23%
Cohumulone (CTZ hop plants [4]; 10 mM MDJ foliar spray): 26.03 % alpha
Colupulone (CTZ hop plants [4]; 10 mM MDJ foliar spray): 43.47 % beta
Colupolone content, as a percentage of overall beta acids (CTZ hop plants [4]; 1, 5, 10 mM MDJ foliar spray): highest at 5 mM treatment
alpha acid content (CTZ hop plants [4]; 1, 5, 10 mM MDJ foliar spray): dose-dependent increase
beta acid content (CTZ hop plants [4]; 1, 5, 10 mM MDJ foliar spray): dose-dependent increase
Cohumulone content as a percentage of overall alpha acids (CTZ hop plants [4]; with increasing MDJ concentration (1, 5, 10 mM)): increased
Terpene content: 2-Undecanone (CTZ hop plants [5]; 1 mM MDJ foliar spray): 0.00%
Terpene content: Alpha-pinene (CTZ hop plants [5]; 1 mM MDJ foliar spray): 0.37%
Terpene content: Beta-ionone (CTZ hop plants [5]; 1 mM MDJ foliar spray): 0.08%
Terpene content: Beta-pinene (CTZ hop plants [5]; 1 mM MDJ foliar spray): 0.36%
Terpene content: Caryophyllene (CTZ hop plants [5]; 1 mM MDJ foliar spray): 16.6%
Terpene content: Caryophyllene oxide (CTZ hop plants [5]; 1 mM MDJ foliar spray): 0.12%
Terpene content: Citral (CTZ hop plants [5]; 1 mM MDJ foliar spray): 0.32%
Terpene content: Citronellene (CTZ hop plants [5]; 1 mM MDJ foliar spray): 0.42%
Terpene content: Citronellol (CTZ hop plants [5]; 1 mM MDJ foliar spray): 0.00%
Terpene content: Farnesene (CTZ hop plants [5]; 1 mM MDJ foliar spray): 0.00%
Terpene content: Geraniol (CTZ hop plants [5]; 1 mM MDJ foliar spray): 0.52%
Terpene content: Humulene (CTZ hop plants [5]; 1 mM MDJ foliar spray): 38.7%
Terpene content: Limonene (CTZ hop plants [5]; 1 mM MDJ foliar spray): 0.10%
Terpene content: Linalool (CTZ hop plants [5]; 1 mM MDJ foliar spray): 0.21%
Terpene content: Methyl Heptanoate (CTZ hop plants [5]; 1 mM MDJ foliar spray): 0.06%
Terpene content: Methyl Laurate (CTZ hop plants [5]; 1 mM MDJ foliar spray): 0.39%
Terpene content: Methyl Octanoate (CTZ hop plants [5]; 1 mM MDJ foliar spray): 0.44%
Terpene content: Methyl thiohexanoate (CTZ hop plants [5]; 1 mM MDJ foliar spray): 0.05%
Terpene content: Myrcene (CTZ hop plants [5]; 1 mM MDJ foliar spray): 27.0%
Terpene content: Nerol (CTZ hop plants [5]; 1 mM MDJ foliar spray): 0.03%
Terpene content: Ocimene (CTZ hop plants [5]; 1 mM MDJ foliar spray): 0.39%
Terpene content: Terpinolene (CTZ hop plants [5]; 1 mM MDJ foliar spray): 0.25%
Terpene content: Unidentified (CTZ hop plants [5]; 1 mM MDJ foliar spray): 13.0%
Terpene content: Geranyl acetate 1* (CTZ hop plants [5]; 1 mM MDJ foliar spray): 0.38%
Terpene content: Geranyl acetate 2** (CTZ hop plants [5]; 1 mM MDJ foliar spray): 0.07%
Terpene content: Nerolidol 1* (CTZ hop plants [5]; 1 mM MDJ foliar spray): 0.09%
Terpene content: Nerolidol 2** (CTZ hop plants [5]; 1 mM MDJ foliar spray): 0.06%
Terpene content: 2-Undecanone (CTZ hop plants [5]; 5 mM MDJ foliar spray): 0.01%
Terpene content: Alpha-pinene (CTZ hop plants [5]; 5 mM MDJ foliar spray): 0.14%
Terpene content: Beta-ionone (CTZ hop plants [5]; 5 mM MDJ foliar spray): 0.59%
Terpene content: Beta-pinene (CTZ hop plants [5]; 5 mM MDJ foliar spray): 0.35%
Terpene content: Caryophyllene (CTZ hop plants [5]; 5 mM MDJ foliar spray): 13.4%
Terpene content: Caryophyllene oxide (CTZ hop plants [5]; 5 mM MDJ foliar spray): 0.04%
Terpene content: Citral (CTZ hop plants [5]; 5 mM MDJ foliar spray): 0.11%
Terpene content: Citronellene (CTZ hop plants [5]; 5 mM MDJ foliar spray): 0.42%
Terpene content: Citronellol (CTZ hop plants [5]; 5 mM MDJ foliar spray): 0.00%
Terpene content: Farnesene (CTZ hop plants [5]; 5 mM MDJ foliar spray): 0.03%
Terpene content: Geraniol (CTZ hop plants [5]; 5 mM MDJ foliar spray): 0.78%
Terpene content: Humulene (CTZ hop plants [5]; 5 mM MDJ foliar spray): 27.3%
Terpene content: Limonene (CTZ hop plants [5]; 5 mM MDJ foliar spray): 0.09%
Terpene content: Linalool (CTZ hop plants [5]; 5 mM MDJ foliar spray): 0.31%
Terpene content: Methyl Heptanoate (CTZ hop plants [5]; 5 mM MDJ foliar spray): 0.05%
Terpene content: Methyl Laurate (CTZ hop plants [5]; 5 mM MDJ foliar spray): 0.11%
Terpene content: Methyl Octanoate (CTZ hop plants [5]; 5 mM MDJ foliar spray): 0.31%
Terpene content: Methyl thiohexanoate (CTZ hop plants [5]; 5 mM MDJ foliar spray): 0.05%
Terpene content: Myrcene (CTZ hop plants [5]; 5 mM MDJ foliar spray): 39.0%
Terpene content: Nerol (CTZ hop plants [5]; 5 mM MDJ foliar spray): 0.00%
Terpene content: Ocimene (CTZ hop plants [5]; 5 mM MDJ foliar spray): 0.28%
Terpene content: Terpinolene (CTZ hop plants [5]; 5 mM MDJ foliar spray): 0.11%
Terpene content: Unidentified (CTZ hop plants [5]; 5 mM MDJ foliar spray): 15.7%
Terpene content: Geranyl acetate 1* (CTZ hop plants [5]; 5 mM MDJ foliar spray): 0.43%
Terpene content: Geranyl acetate 2** (CTZ hop plants [5]; 5 mM MDJ foliar spray): 0.11%
Terpene content: Nerolidol 1* (CTZ hop plants [5]; 5 mM MDJ foliar spray): 0.14%
Terpene content: Nerolidol 2** (CTZ hop plants [5]; 5 mM MDJ foliar spray): 0.12%
Terpene content: 2-Undecanone (CTZ hop plants [5]; 10 mM MDJ foliar spray): 0.07%
Terpene content: Alpha-pinene (CTZ hop plants [5]; 10 mM MDJ foliar spray): 0.11%
Terpene content: Beta-ionone (CTZ hop plants [5]; 10 mM MDJ foliar spray): 0.52%
Terpene content: Beta-pinene (CTZ hop plants [5]; 10 mM MDJ foliar spray): 0.54%
Terpene content: Caryophyllene (CTZ hop plants [5]; 10 mM MDJ foliar spray): 13.2%
Terpene content: Caryophyllene oxide (CTZ hop plants [5]; 10 mM MDJ foliar spray): 0.07%
Terpene content: Citral (CTZ hop plants [5]; 10 mM MDJ foliar spray): 0.20%
Terpene content: Citronellene (CTZ hop plants [5]; 10 mM MDJ foliar spray): 0.39%
Terpene content: Citronellol (CTZ hop plants [5]; 10 mM MDJ foliar spray): 0.00%
Terpene content: Farnesene (CTZ hop plants [5]; 10 mM MDJ foliar spray): 0.02%
Terpene content: Geraniol (CTZ hop plants [5]; 10 mM MDJ foliar spray): 0.82%
Terpene content: Humulene (CTZ hop plants [5]; 10 mM MDJ foliar spray): 24.7%
Terpene content: Limonene (CTZ hop plants [5]; 10 mM MDJ foliar spray): 0.09%
Terpene content: Linalool (CTZ hop plants [5]; 10 mM MDJ foliar spray): 0.31%
Terpene content: Methyl Heptanoate (CTZ hop plants [5]; 10 mM MDJ foliar spray): 0.06%
Terpene content: Methyl Laurate (CTZ hop plants [5]; 10 mM MDJ foliar spray): 0.19%
Terpene content: Methyl Octanoate (CTZ hop plants [5]; 10 mM MDJ foliar spray): 0.24%
Terpene content: Methyl thiohexanoate (CTZ hop plants [5]; 10 mM MDJ foliar spray): 0.02%
Terpene content: Myrcene (CTZ hop plants [5]; 10 mM MDJ foliar spray): 39.6%
Terpene content: Nerol (CTZ hop plants [5]; 10 mM MDJ foliar spray): 0.02%
Terpene content: Ocimene (CTZ hop plants [5]; 10 mM MDJ foliar spray): 0.16%
Terpene content: Terpinolene (CTZ hop plants [5]; 10 mM MDJ foliar spray): 0.05%
Terpene content: Unidentified (CTZ hop plants [5]; 10 mM MDJ foliar spray): 17.8%
Terpene content: Geranyl acetate 1* (CTZ hop plants [5]; 10 mM MDJ foliar spray): 0.38%
Terpene content: Geranyl acetate 2** (CTZ hop plants [5]; 10 mM MDJ foliar spray): 0.09%
Terpene content: Nerolidol 1* (CTZ hop plants [5]; 10 mM MDJ foliar spray): 0.17%
Terpene content: Nerolidol 2** (CTZ hop plants [5]; 10 mM MDJ foliar spray): 0.22%
